In patent US8569344B2, “N-piperidinyl acetamide derivatives as calcium channel blockers” (Zalicus Pharmaceuticals Ltd., priority 2008, dated 2013):
Where two headings read alike, the source gives them in different places.

Columns and labels:
[1] = test system: absence seizures in GAERS rats; experiment: GAERS (Genetic Absence Epilepsy Rats from Strasbourg) epilepsy model, EEG spike and wave discharges; assay type: in vivo, rat; settings: for Percent Recording Time in Seizure Activity, Baseline: 60 minutes pre-injection EEG recording; for Percent Recording Time in Seizure Activity, Post-injection / percentage of time in seizure activity compared to both baseline and vehicle: IP 30 mg/kg; for Percent Recording Time in Seizure Activity, Post-injection: 120 minutes post-injection EEG recording starting 15 minutes post-drug
From the text: The GAERS (Genetic Absence Epilepsy Rats from Strasbourg) is noted for its long and frequently recurring absence seizure episodes. […] Eight female GAERS rats, bred in the Ludwig Institute for Cancer Research, were used for this study. Rats weighed between 180 and 250 g and aged between 18 and 26 weeks at the start of the experiment.
Electrodes were made in our laboratory by soldering together gold-plated sockets (220-S02 Ginder Scientific, VA, Canada), stainless steel teflon coated wire (SDR clinical technology, NSW, Australia) and a small stainless steel screw (1.4×3 mm, Mr. Specks, Australia). Animals were anaethetised with inhalation of Isoflurane in equal parts of medical air and oxygen (5% induction, 2.5-1.5% maintenance) or alternatively by intraperitoneal injection with xylazine (10 mg/kg) and ketamine (75 mg/kg). The animals were fixated in a stereotaxic frame by means of ear bars. A midline incision on the scalp was made, skin and connective tissue was scraped and pushed laterally to expose underlying skull. 6 holes were drilled bilaterally, 2 in the frontal bone and 4 in the parietal bone, approximately 2 mm anterior to bregma, and 4 and 10 mm posterior to bregma. 6 electrodes were implanted in the holes, and gold-plated sockets were clipped into 9-pin ABS plug (GS09PLG-220, Ginder Scientific, Canada). 2 two side-anchoring screws were placed laterally into skull to improve strength of cap fixation, then caps were held in place with dental cement.
Post-operatively, animals were given the analgesic Rimadyl (4 mg/kg), placed in their cages on a heat mat, and observed until recovery. Rats were caged separately throughout the study, weighed and health-checked daily, and were allowed 7 days to recover prior to commencement of the experimental procedures. Rats were allowed free access to rodent chow (brand, WA stock feeders) and water under 12:12 light dark conditions in the Biological Research Facility of the Department of Medicine (RMH).
Prior to first drug treatment, rats were tested for absence-type seizures, which are accompanied by generalised spike and wave discharges (SWD) on an EEG recording. Testing, and all further experiments were performed in a quiet, well lit room with rats in their home cages. Rats were connected via 6-channel wire cables, which were cut and soldered to 6 gold-plated pins inserted into a 9 pin socket. Cables were connected to a computer running Compumedics™ EEG acquisition software (Melbourne, Australia). […] On week 1, day 1 after the acclimation period following surgical implantation of subdural electrodes, 4 animals (#1-4) were habituated with the cable connected for 15 minutes, then had their SWDs recorded for 60 minutes as baseline. Immediately following baseline, rats were given one of the test, reference or control articles according to the treatment schedule, and target period was recorded from 15 after injection for 120 minutes. Animals were monitored throughout the experiment, and were kept quietly wakeful during baseline and target periods
The seizure expression for the 60 minutes pre-injection and 120 minutes post-injection EEG recording (starting 15 minutes post-drug administration) was quantified by marking the start and finish of the burst of SWDs. This was done with the assistance of SWCFinder® software which has been custom designed to quantitate GAERS seizures, and researchers were blinded to the nature of the drug administered, whereby the analysis was performed blinded. Standard criteria for GAERS seizures is an SWD burst of amplitude of more than three times baseline, a frequency of 7 to 12 Hz, and a duration of longer than 0.5 s. From this, the total percent time spent in seizure over the 120 minutes post-injection EEG recording was determined (percentage time in seizure) as the primary outcome variable.

hERG K+ channel = hERG K+ channel (Homo sapiens, UniProt Q12809); experiment: hERG K+ Channel Block; assay type: cell-based
[2] = molecular target: T1, human α1G T-type channels (Homo sapiens, UniProt O43497); experiment: T-type calcium channel block, whole cell patch clamp in HEK cells (α1G); assay type: cell-based; settings: HEK cells, patch clamp, mainly non-inactivated protocol; values above 10 μM shown as 10 μM, below 0.30 μM shown as 0.30 μM; read-out: T-type Calcium Channel Block α1G IC50
T1 construct: expressed in transfected cells; host or cells: HEK 293
T1 sequence (O43497 whole entry): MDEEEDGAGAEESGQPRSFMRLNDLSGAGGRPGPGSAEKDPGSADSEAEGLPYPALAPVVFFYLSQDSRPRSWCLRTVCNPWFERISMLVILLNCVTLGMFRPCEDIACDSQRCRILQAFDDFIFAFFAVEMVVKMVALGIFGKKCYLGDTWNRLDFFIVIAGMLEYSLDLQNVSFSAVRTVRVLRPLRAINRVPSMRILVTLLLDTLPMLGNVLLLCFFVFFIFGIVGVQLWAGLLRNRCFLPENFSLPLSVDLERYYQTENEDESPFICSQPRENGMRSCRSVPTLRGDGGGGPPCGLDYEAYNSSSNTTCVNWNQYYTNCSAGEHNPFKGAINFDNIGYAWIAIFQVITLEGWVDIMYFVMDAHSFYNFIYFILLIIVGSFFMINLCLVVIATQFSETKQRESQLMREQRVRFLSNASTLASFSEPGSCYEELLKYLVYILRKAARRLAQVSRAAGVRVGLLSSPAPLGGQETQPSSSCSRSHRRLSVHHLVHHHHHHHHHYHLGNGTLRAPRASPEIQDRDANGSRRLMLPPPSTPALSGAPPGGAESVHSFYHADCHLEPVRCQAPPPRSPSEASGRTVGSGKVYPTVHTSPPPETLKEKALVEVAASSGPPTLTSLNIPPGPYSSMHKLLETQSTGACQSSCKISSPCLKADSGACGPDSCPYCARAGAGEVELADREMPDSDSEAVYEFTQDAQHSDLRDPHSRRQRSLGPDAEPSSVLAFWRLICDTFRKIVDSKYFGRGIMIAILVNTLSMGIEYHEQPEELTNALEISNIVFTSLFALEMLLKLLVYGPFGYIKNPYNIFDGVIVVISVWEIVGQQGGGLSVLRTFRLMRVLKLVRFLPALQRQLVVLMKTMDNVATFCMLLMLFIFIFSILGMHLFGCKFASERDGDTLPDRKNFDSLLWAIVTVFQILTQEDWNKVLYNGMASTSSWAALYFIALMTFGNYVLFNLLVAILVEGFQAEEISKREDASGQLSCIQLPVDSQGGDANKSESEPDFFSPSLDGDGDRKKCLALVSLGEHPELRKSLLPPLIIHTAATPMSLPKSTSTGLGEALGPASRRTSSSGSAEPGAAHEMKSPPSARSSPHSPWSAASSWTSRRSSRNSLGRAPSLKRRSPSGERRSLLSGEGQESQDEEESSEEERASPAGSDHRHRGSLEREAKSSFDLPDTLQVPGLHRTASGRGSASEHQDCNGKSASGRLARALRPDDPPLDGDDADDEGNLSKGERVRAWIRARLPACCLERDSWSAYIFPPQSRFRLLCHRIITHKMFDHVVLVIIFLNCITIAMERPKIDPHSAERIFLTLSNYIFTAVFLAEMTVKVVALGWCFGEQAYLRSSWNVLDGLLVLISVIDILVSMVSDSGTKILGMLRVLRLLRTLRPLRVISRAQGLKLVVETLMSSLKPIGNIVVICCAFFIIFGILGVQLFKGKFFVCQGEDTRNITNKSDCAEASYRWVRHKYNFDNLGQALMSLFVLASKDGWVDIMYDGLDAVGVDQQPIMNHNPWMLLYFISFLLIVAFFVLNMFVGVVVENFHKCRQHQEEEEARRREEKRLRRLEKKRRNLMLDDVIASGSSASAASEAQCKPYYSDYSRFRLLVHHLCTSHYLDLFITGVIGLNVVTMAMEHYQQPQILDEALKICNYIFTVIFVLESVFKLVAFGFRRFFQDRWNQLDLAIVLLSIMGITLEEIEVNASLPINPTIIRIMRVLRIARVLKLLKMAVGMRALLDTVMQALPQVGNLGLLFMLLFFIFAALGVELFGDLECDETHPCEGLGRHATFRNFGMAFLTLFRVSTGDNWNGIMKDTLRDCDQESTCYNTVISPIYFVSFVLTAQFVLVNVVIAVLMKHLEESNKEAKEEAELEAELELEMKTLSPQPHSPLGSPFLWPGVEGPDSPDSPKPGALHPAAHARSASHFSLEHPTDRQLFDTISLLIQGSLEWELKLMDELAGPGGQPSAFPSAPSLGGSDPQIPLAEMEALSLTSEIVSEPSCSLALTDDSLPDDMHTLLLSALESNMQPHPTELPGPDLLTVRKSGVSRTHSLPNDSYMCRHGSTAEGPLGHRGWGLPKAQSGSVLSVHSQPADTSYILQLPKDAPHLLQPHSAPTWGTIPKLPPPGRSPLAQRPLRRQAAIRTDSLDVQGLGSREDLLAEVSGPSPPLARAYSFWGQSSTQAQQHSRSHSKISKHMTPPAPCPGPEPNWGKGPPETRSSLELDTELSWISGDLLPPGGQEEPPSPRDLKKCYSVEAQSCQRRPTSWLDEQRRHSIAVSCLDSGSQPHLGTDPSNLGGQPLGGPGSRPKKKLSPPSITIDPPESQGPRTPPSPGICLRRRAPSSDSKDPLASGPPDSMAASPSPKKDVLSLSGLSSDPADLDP

[3] = molecular target: T2, human α1H T-type channels (Homo sapiens, UniProt O95180); experiment: T-type calcium channel block, whole cell patch clamp in HEK cells (α1H); assay type: cell-based; settings: HEK cells, patch clamp, mainly non-inactivated protocol; values above 10 μM shown as 10 μM; read-out: T-type Calcium Channel Block α1H IC50
T2 construct: expressed in transfected cells; host or cells: HEK 293
T2 sequence (O95180 whole entry): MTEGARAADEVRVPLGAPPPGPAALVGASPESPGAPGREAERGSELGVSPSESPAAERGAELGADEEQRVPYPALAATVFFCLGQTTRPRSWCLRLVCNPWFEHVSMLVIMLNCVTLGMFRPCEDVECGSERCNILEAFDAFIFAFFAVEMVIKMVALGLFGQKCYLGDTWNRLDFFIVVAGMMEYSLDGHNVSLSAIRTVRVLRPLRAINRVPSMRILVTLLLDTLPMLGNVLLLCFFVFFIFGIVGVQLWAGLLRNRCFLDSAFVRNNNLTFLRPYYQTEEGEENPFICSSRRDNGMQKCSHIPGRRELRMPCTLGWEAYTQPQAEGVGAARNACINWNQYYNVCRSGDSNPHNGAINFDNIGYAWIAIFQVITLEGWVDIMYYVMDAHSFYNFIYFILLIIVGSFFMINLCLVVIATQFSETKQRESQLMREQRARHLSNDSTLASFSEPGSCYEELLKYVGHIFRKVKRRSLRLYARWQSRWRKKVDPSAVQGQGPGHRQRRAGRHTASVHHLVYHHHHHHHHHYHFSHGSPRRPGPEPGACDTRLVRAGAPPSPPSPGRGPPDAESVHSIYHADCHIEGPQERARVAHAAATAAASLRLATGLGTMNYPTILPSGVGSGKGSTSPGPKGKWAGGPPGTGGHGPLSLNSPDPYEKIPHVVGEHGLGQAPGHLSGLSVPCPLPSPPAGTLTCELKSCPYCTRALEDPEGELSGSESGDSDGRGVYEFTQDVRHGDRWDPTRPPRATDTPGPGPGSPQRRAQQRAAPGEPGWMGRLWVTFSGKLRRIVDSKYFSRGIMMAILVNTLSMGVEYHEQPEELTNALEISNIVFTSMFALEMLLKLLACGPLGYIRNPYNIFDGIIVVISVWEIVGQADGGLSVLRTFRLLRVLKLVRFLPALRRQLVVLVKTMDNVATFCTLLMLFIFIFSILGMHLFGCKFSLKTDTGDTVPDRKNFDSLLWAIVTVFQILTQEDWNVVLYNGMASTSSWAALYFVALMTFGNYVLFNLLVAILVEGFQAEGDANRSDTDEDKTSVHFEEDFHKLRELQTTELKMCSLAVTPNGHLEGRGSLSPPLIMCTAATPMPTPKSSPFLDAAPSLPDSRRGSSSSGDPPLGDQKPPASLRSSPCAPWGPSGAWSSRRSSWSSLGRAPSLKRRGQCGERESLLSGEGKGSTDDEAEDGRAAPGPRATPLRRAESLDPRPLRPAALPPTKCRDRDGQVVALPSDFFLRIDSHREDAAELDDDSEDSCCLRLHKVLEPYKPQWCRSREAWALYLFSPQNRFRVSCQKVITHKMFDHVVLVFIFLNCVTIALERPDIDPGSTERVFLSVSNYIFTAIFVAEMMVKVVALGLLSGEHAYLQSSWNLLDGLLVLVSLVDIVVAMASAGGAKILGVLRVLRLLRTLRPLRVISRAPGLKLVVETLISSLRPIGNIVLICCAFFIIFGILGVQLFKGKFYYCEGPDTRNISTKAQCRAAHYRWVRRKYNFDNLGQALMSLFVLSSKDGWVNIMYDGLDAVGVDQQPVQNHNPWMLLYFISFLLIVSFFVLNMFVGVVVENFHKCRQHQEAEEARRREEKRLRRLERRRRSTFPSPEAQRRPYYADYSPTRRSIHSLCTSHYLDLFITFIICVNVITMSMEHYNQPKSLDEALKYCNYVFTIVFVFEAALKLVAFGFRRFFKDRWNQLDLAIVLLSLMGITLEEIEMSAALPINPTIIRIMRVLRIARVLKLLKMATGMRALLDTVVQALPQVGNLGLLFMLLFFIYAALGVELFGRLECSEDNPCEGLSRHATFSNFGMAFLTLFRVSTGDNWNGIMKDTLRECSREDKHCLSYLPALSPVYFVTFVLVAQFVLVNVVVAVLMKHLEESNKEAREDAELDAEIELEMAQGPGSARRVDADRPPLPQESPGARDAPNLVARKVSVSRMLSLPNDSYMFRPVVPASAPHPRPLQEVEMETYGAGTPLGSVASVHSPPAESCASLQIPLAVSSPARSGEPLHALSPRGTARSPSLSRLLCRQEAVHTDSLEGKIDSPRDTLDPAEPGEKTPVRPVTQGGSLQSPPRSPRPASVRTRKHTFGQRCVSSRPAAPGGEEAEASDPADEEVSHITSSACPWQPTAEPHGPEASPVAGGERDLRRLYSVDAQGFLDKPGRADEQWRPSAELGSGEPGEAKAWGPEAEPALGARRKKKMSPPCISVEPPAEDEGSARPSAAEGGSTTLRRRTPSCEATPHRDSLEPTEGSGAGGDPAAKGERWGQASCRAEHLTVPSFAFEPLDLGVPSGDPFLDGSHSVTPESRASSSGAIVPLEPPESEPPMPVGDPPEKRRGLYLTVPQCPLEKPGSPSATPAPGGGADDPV

[4] = test system: spinal nerve ligation model of neuropathic pain; settings: rats; Dogrul et al., Pain (2003); cited from earlier work

SMILES: CC(C)(C)NC(=O)CN1CCC(CNC(=O)c2cc(F)cc(Cl)c2)CC1 [Compound 367, N-((1-(2-(tert-butylamino)-2-oxoethyl)piperidin-4-yl)methyl)-3-chloro-5-fluorobenzamide]
- Percent Recording Time in Seizure Activity, Baseline [1]: 9.99 ± 2.07%
- Percent Recording Time in Seizure Activity, Post-injection [1]: 0.87 ± 0.44%
- IC50 (hERG K+ channel; human): ≥ 8300 nM
- IC50 [2]: < 300 nM
- IC50 [3]: 50 nM

SMILES: CCC1(C)CC(=O)NC1=O (stereo not shown) [ethosuximide]
- anti-hyperalgesic activity in the spinal nerve ligation model of neuropathic pain [4]: anti-hyperalgesic activity

SMILES: COCC(=O)O[C@]1(CCN(C)CCCc2nc3ccccc3[nH]2)CCc2cc(F)ccc2[C@@H]1C(C)C [mibefradil]
- anti-hyperalgesic activity in the spinal nerve ligation model of neuropathic pain [4]: anti-hyperalgesic activity

SMILES: CC(C)(C)NC(=O)CN1CCC(CNC(=O)c2cc(F)cc(F)c2)CC1 [Compound 365, N-((1-(2-(tert-butylamino)-2-oxoethyl)piperidin-4-yl)methyl)-3,5-difluorobenzamide]
- percentage of time in seizure activity compared to both baseline and vehicle [1]: significant decrease
- IC50 [2]: 800 nM
- IC50 [3]: 560 nM

SMILES: COc1cc(OC)cc(C(=O)NCC2CCN(CC(=O)NC(C)(C)C)CC2)c1 [Compound 368, N-((1-(2-(tert-butylamino)-2-oxoethyl)piperidin-4-yl)methyl)-3,5-dimethoxybenzamide]
- percentage of time in seizure activity compared to both baseline and vehicle [1]: significant decrease
- IC50 (hERG K+ channel; human): ≥ 8300 nM
- IC50 [2]: < 300 nM
- IC50 [3]: 170 nM

SMILES: CC(C)(C)NC(=O)CN1CCC(CNC(=O)c2cccc(Cl)c2)CC1 [Compound 364, N-((1-(2-(tert-buylamino)-2-oxoethyl)piperidin-4-yl)methyl)-3-chlorobenzamide]
- Percent Recording Time in Seizure Activity, Baseline [1]: 12.12 ± 1.82%
- Percent Recording Time in Seizure Activity, Post-injection [1]: 0.45 ± 0.20%
- IC50 (hERG K+ channel; human): ≥ 8300 nM
- IC50 [2]: < 300 nM
- IC50 [3]: 230 nM

SMILES: O=C(NCC1CCN(CCNC(=O)C2(C(F)(F)F)CC2)CC1)c1cccc(Br)c1 [Compound 501, 3-bromo-N-((1-(2-(1-(trifluoromethyl)cyclopropanecarbox-amido)ethyl)piperidin-4-yl)methyl) benzamide]
- IC50 (hERG K+ channel): 5600 nM
- IC50 [2]: < 300 nM
- IC50 [3]: 120 nM

SMILES: O=C(NCC1CCN(CCNC(=O)C2(C(F)(F)F)CC2)CC1)c1cccc(C(F)(F)F)c1 [Compound 473, 3-(trifluoromethyl)-N-((1-(2-(1-(trifluoromethyl)cyclopropanecarbox-amido)ethyl)piperidin-4-yl)methyl) benzamide]
- IC50 (hERG K+ channel): 2200 nM
- IC50 [2]: 680 nM
- IC50 [3]: 130 nM

SMILES: O=C(CC1CCN(CC(O)C(F)(F)F)CC1)Nc1cc(C(F)(F)F)cc(C(F)(F)F)c1 (stereo not shown) [Compound 178, N-(3,5-bis(trifluoromethyl)phenyl)-2-(1-(3,3,3-trifluoro-2-hydroxypropyl)piperidin-4-yl)acetamide]
- IC50 (hERG K+ channel): 1600 nM
- IC50 [2]: 720 nM
- IC50 [3]: 5100 nM
